Earlier results as cited in patent publication US20050065130A1, “Pharmaceutical compositions and methods comprising combinations of 2-alkylidene-19-nor-vitamin D derivatives and a cyclooxgenase-2 inhibitor” (Pfizer Inc., priority 2003, published 2005).

C=C1[C@H](O)CC(=C/C=C2\CCC[C@]3(C)[C@@H]([C@H](C)CCCC(C)(C)O)CC[C@@H]23)C[C@H]1O [2-Methylene-19-Nor-1,25-(OH)2D3, 1α,25-dihydroxy-2-methylene-19-nor-vitamin D3]
bone calcium mobilization (in words) (chronic mode 7 days, both dose levels (130 and 260 pmol/day)): extremely strong
activity on bone calcium mobilization (serum calcium), times that of the native hormone 1,25-(OH)2D3 (relative to 1,25-(OH)2D3, chronic mode 7 days): 10-100 times

C=C1/C(=C\C=C2/CCC[C@]3(C)[C@@H]([C@H](C)CCCC(C)(C)O)CC[C@@H]23)C[C@@H](O)C[C@@H]1O [1,25-(OH)2D3, 1,25-dihydroxyvitamin D3, reference compound]
serum calcium value (as printed: twice the dose, at the 130 pmol dose): 13.8 mg/100 ml
